Test results published in patent US11702404B2, “GLP-1R modulating compounds” (priority 2019, dated 2023).
Read-outs that look alike come from different tables or passages of the source.

How the values were obtained:
GLP-1R = GLP-1R (Homo sapiens, UniProt P43220); assay: GLP-1R activation: cAMP increase in CHO cells stably expressing GLP-1R; type: cell-based
[1] = Microsomal stability, human liver microsomes (predicted hepatic clearance); settings: predicted from in vitro microsomal stability data
[2] = cAMP increase, CHO cells stably expressing GLP-1R, 10 point dose response, 30 minutes incubation, read-out: EC50

Chain of GLP-1R (P43220 24-463): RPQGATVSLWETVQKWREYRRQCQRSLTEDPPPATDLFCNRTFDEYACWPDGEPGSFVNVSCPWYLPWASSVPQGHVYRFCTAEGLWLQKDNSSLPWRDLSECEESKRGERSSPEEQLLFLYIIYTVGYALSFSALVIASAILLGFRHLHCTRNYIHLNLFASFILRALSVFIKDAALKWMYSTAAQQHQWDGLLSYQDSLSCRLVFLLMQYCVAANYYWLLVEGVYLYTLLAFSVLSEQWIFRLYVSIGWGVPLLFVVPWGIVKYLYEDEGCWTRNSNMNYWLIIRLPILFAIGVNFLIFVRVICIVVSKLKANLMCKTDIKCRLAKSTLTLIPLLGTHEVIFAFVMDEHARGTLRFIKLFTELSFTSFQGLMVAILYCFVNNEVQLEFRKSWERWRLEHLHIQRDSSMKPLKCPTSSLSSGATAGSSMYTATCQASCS

| Compound | EC50 (GLP-1R; [2]) | Predicted Hepatic Clearance (Pred. Cl.) [1] | EC50 (GLP-1R; EC50 (nM)) |
| --- | --- | --- | --- |
| COCCn1c(Cc2ccc(-c3cccc(OCc4ccc(Cl)c(C(C)C)c4)n3)cc2F)nc2ccc(C(=O)O)cc21 [Example 156, 2-(4-(6-((4-chloro-3-isopropylbenzyl)oxy)pyridin-2-yl)-2-fluorobenzyl)-1-(2-methoxyethyl)-1H-benzo[d]imidazole-6-carboxylic acid] | 51.5 nM | 5.5 mL/min/kg | – |
| COCCn1c(Cc2ccc(-c3cccc(OCc4cccc(C(C)C)c4OC)n3)cc2F)nc2ccc(C(=O)O)cc21 [Example 157, 2-(2-fluoro-4-(6-((3-isopropyl-2-methoxybenzyl)oxy)pyridin-2-yl)benzyl)-1-(2-methoxyethyl)-1H-benzo[d]imidazole-6-carboxylic acid] | 534 nM | 7.67 mL/min/kg | – |
| COCCn1c(Cc2ccc(-c3cccc(OCc4cccc(C(C)C)c4F)n3)cc2F)nc2ccc(C(=O)O)cc21 [Example 158, 2-(2-fluoro-4-(6-((2-fluoro-3-isopropylbenzyl)oxy)pyridin-2-yl)benzyl)-1-(2-methoxyethyl)-1H-benzo[d]imidazole-6-carboxylic acid] | 37.1 nM | 3.83 mL/min/kg | – |
| COCCn1c(Cc2cc(F)c(-c3nccc(OCc4ccc(C#N)cc4F)n3)cc2F)nc2ccc(C(=O)O)cc21 [Example 159, 2-(4-(4-((4-cyano-2-fluorobenzyl)oxy)pyrimidin-2-yl)-2,5-difluorobenzyl)-1-(2-methoxyethyl)-1H-benzo[d]imidazole-6-carboxylic acid] | – | 6 mL/min/kg | 7.78 nM |
| COCCn1c(Cc2cc(F)c(-c3ccc(F)c(NCc4ccc(C#N)cc4F)n3)cc2F)nc2ccc(C(=O)O)cc21 [Example 164, 2-(4-(6-((4-cyano-2-fluorobenzyl)amino)-5-fluoropyridin-2-yl)-2,5-difluorobenzyl)-1-(2-methoxyethyl)-1H-benzo[d]imidazole-6-carboxylic acid] | 32.9 nM | 6.7 mL/min/kg | – |

Now from value to compound, other results behind:

| EC50 (GLP-1R; [2]) | Predicted Hepatic Clearance (Pred. Cl.) [1] | Compound | EC50 (GLP-1R; EC50 (nM)) |
| --- | --- | --- | --- |
| 10.2 nM | 5 mL/min/kg | COCCn1c(Cc2cc(F)c(-c3ncc(F)c(OCc4ccc(C#N)cc4F)n3)cc2F)nc2ccc(C(=O)O)cc21 [Example 160, 2-(4-(4-((4-cyano-2-fluorobenzyl)oxy)-5-fluoropyrimidin-2-yl)-2,5-difluorobenzyl)-1-(2-methoxyethyl)-1H-benzo[d]imidazole-6-carboxylic acid] | – |
| 1 nM | 3.83 mL/min/kg | N#Cc1ccc(COc2nc(-c3cc(F)c(Cc4nc5ccc(C(=O)O)cc5n4CC4(CF)CC4)cc3F)ncc2F)c(F)c1 [Example 161, 2-(4-(4-((4-cyano-2-fluorobenzyl)oxy)-5-fluoropyrimidin-2-yl)-2,5-difluorobenzyl)-1-((1-(fluoromethyl)cyclopropyl)methyl)-1H-benzo[d]imidazole-6-carboxylic acid] | – |
| 0.17 nM | <1.83 mL/min/kg | N#CCC1(Cn2c(Cc3ccc(-c4ccc(F)c(OCc5ccc(C#N)cc5F)n4)cc3F)nc3ccc(C(=O)O)cc32)CC1 [Example 162, 2-(4-(6-((4-cyano-2-fluorobenzyl)oxy)-5-fluoropyridin-2-yl)-2-fluorobenzyl)-1-((1-(cyanomethyl)cyclopropyl)methyl)-1H-benzo[d]imidazole-6-carboxylic acid] | – |
| 1.41 nM | 5 mL/min/kg | N#Cc1ccc(COc2cccc(-c3cc(F)c(Cc4nc5ccc(C(=O)NS(=O)(=O)C6CC6)cc5n4C[C@@H]4CCO4)cc3F)n2)c(F)c1 [Example 163, (S)-2-(4-(6-((4-cyano-2-fluorobenzyl)oxy)pyridin-2-yl)-2,5-difluorobenzyl)-N-(cyclopropylsulfonyl)-1-(oxetan-2-ylmethyl)-1H-benzo[d]imidazole-6-carboxamide] | – |
